According to patent US20230146455A1, “TREATMENT OF INFLAMMATORY DISEASES WITH PEPTIDES AND PHARMACEUTICAL COMPOSITIONS” (Yuyu Pharma, Inc., priority 2020, published 2023):
Where “and” joins values, the source holds several entries; their conditions need not be identical. Equal entries are not always repeated. Where a SMILES comes first, the peptide text is derived from it. [ ]: non-standard residue; d: D form. Hyp = O=C(O)[C@@H]1C[C@@H](O)CN1

Test system: Fas Ligand
Assay: Example 9 Luminex, LPS hPBMCs: Fas Ligand
Format: cell-based, human
Settings: for Fas Ligand Concentration / Fas Ligand conc/live cell / MFI, bead Fas Ligand: single replicates
Method: Treatment Human PBMCs were pretreated with YY-101, YDE-011 and YDE-043 or reference compound; Xiidra® at various concentration (ranging from 1 nM to 100 uM) for 2 h before stimulation. An equal volume of 0.5% DMSO was used as a vehicle control. Then, the cells were treated with LPS at 5 ug/ml. The supernatants from treated cells were harvested at 24 h and placed in a 96 well for Luminex cytokine & chemokine profiling using a Luminex 200 multiplex assay (Luminex; R&D system, USA).
The main study arm with triplicate wells per group in a 24-well plate: • 1. Blank • 2. PBMC: 0.5% DMSO • 3. PBMC+LPS (5 ug/ml) • 4. PBMC+YY-101 100 uM • 5. PBMC+YY-101 10 uM • 6. PBMC+YY-101 1 uM • 7. PBMC+YY-101 0.1 uM • 8. PBMC+YY-101 0.01 uM • 9. PBMC+LPS (5 ug/ml)+Xiidra®100 uM • 10. PBMC+LPS (5 ug/ml)+Xiidra® 10 uM • 11. PBMC+LPS (5 ug/ml)+Xiidra® 1 uM • 12. PBMC+LPS (5 ug/ml)+Xiidra®0.1 uM • 13. PBMC+LPS (5 ug/ml)+Xiidra®0.01 uM • 14. PBMC+LPS (5 ug/ml)+Xiidra®0.001 uM • 15. PBMC+LPS (5 ug/ml)+YY-101 100 uM • 16. PBMC+LPS (5 ug/ml)+YY-101 10 uM • 17. PBMC+LPS (5 ug/ml)+YY-101 1 uM • 18. PBMC+LPS (5 ug/ml)+YY-101 0.1 uM • 19. PBMC+LPS (5 ug/ml)+YY-101 0.01 uM • 20. PBMC+LPS (5 ug/ml)+YY-101 0.001 uM • 21. PBMC+LPS (5 ug/ml)+YDE-011 100 uM • 22. PBMC+LPS (5 ug/ml)+YDE-011 10 uM • 23. PBMC+LPS (5 ug/ml)+YDE-011 1 uM • 24. PBMC+LPS (5 ug/ml)+YDE-011 0.1 uM • 25. PBMC+LPS (5 ug/ml)+YDE-011 0.01 uM • 26. PBMC+LPS (5 ug/ml)+YDE-011 0.001 uM • 27. PBMC+LPS (5 ug/ml)+YDE-043 100 uM • 28. PBMC+LPS (5 ug/ml)+YDE-043 10 uM • 29. PBMC+LPS (5 ug/ml)+YDE-043 1 uM • 30. PBMC+LPS (5 ug/ml)+YDE-043 0.1 uM • 31. PBMC+LPS (5 ug/ml)+YDE-043 0.01 uM • 32. PBMC+LPS (5 ug/ml)+YDE-043 0.001 uM
Multiplex assay was used to measure 30 cytokines and chemokines. The 1:2, 1:10 and 1:200 diluted cell supernatant and serial dilution of the standard were dispensed into a 96 well plate at 50 ul/well. Then, the pre-mixed cocktail of antibody-coated magnetic beads was dispensed at 50 ul/well and incubated at room temperature for 2 h in a horizontal orbital microplate shaker at 800±500 rpm. The beads were washed using a magnetic device to prevent loss. The biotin-antibody was dispensed in 50 ul of each well and incubated at room temperature for 1 h in a shaker at 800±500 rpm. After washing, streptavidin-PE was added at 50 ul/well and incubated at room temperature for 30 min in a shaker under the same conditions. Finally, after washing, wash buffer (100 ul/well) was added to the plate and incubated in a shaker for 2 min. The Luminex™ 200 setting were set according to the manufacturer's protocol. The data was calculated with a standard five-parameter logistic nonlinear regression analysis of the data (xPonent software 4.2, USA). The levels of cytokine/chemokine are normalized to the live cell counts (1×10^5 cells/mL) and presented as concentrations per mL (pg/mL or ng/mL).

[1] = PBMC + LPS(5 ug/ml) + test article 0.001 uM
[2] = PBMC + LPS(5 ug/ml) + test article 0.01 uM
[3] = PBMC + LPS(5 ug/ml) + test article 0.1 uM
[4] = PBMC + LPS(5 ug/ml) + test article 1 uM
[5] = PBMC + LPS(5 ug/ml) + test article 10 uM
[6] = PBMC + LPS(5 ug/ml) + test article 100 uM
[7] = PBMC + test article 0.01 uM, no LPS
[8] = PBMC + test article 0.1 uM, no LPS
[9] = PBMC + test article 1 uM, no LPS
[10] = PBMC + test article 10 uM, no LPS
[11] = PBMC + test article 100 uM, no LPS

CC(C)C[C@H](NC(=O)CNC(=O)[C@H](CC(=O)O)NC(=O)[C@H](CCC(N)=O)NC(=O)CNC(=O)[C@@H]1C[C@@H](O)CN1)C(=O)N[C@@H](C)C(=O)NCC(=O)N1CCC[C@H]1C(=O)N[C@@H](CCCCN)C(=O)O [YY-101] (H-[Hyp]GQDGLAGPK-OH; N-terminus and C-terminus assumed)
Fas Ligand Concentration, Mean [1]: 30.9 pg/mL | Fas Ligand conc/live cell, Mean [1]: 4.9 pg/10^5 | MFI, bead Fas Ligand, Mean [1]: 43.3 | Fas Ligand Concentration [1]: 35.8 pg/mL and 32.7 pg/mL and 24.1 pg/mL | Fas Ligand conc/live cell [1]: 6.3 pg/10^5 and 4.6 pg/10^5 and 3.7 pg/10^5 | MFI, bead Fas Ligand [1]: 50.5 and 46.0 and 33.5 | Fas Ligand Concentration, Mean [2]: 33.8 pg/mL | Fas Ligand conc/live cell, Mean [2]: 5.5 pg/10^5 | MFI, bead Fas Ligand, Mean [2]: 47.5 | Fas Ligand Concentration [2]: 30.7 pg/mL and 39.3 pg/mL and 31.3 pg/mL | Fas Ligand conc/live cell [2]: 4.8 pg/10^5 and 6.6 pg/10^5 and 5.1 pg/10^5 | MFI, bead Fas Ligand [2]: 43.0 and 55.5 and 44.0 | Fas Ligand Concentration, Mean [3]: 29.5 pg/mL | Fas Ligand conc/live cell, Mean [3]: 5.1 pg/10^5 | MFI, bead Fas Ligand, Mean [3]: 41.3 | Fas Ligand Concentration [3]: 32.7 pg/mL and 30.7 pg/mL and 25.2 pg/mL | Fas Ligand conc/live cell [3]: 5.3 pg/10^5 and 5.9 pg/10^5 and 4.1 pg/10^5 | MFI, bead Fas Ligand [3]: 46.0 and 43.0 and 35.0 | Fas Ligand Concentration, Mean [4]: 34.5 pg/mL | Fas Ligand conc/live cell, Mean [4]: 5.3 pg/10^5 | MFI, bead Fas Ligand, Mean [4]: 48.5 | Fas Ligand Concentration [4]: 35.5 pg/mL and 36.2 pg/mL and 31.7 pg/mL | Fas Ligand conc/live cell [4]: 5.6 pg/10^5 and 5.1 pg/10^5 (2×) | MFI, bead Fas Ligand [4]: 50.0 and 51.0 and 44.5 | Fas Ligand Concentration, Mean [5]: 46.7 pg/mL | Fas Ligand conc/live cell, Mean [5]: 7.3 pg/10^5 | MFI, bead Fas Ligand, Mean [5]: 66.0 | Fas Ligand Concentration [5]: 58.0 pg/mL and 53.7 pg/mL and 28.6 pg/mL | Fas Ligand conc/live cell [5]: 9.7 pg/10^5 and 8.4 pg/10^5 and 3.8 pg/10^5 | MFI, bead Fas Ligand [5]: 82.0 and 76.0 and 40.0 | Fas Ligand Concentration, Mean [6]: 25.4 pg/mL | Fas Ligand conc/live cell, Mean [6]: 4.3 pg/10^5 | MFI, bead Fas Ligand, Mean [6]: 35.2 | Fas Ligand Concentration [6]: 39.0 pg/mL and 16.0 pg/mL and 21.1 pg/mL | Fas Ligand conc/live cell [6]: 6.2 pg/10^5 and 2.6 pg/10^5 and 4.2 pg/10^5 | MFI, bead Fas Ligand [6]: 55.0 and 21.5 and 29.0 | Fas Ligand Concentration, Mean [7]: 7.7 pg/mL | Fas Ligand conc/live cell, Mean [7]: 1.5 pg/10^5 | MFI, bead Fas Ligand, Mean [7]: 8.8 | Fas Ligand Concentration [7]: 6.5 pg/mL and 8.8 pg/mL | Fas Ligand conc/live cell [7]: 1.3 pg/10^5 and 1.8 pg/10^5 | MFI, bead Fas Ligand [7]: 7.0 and 10.5 | Fas Ligand Concentration, Mean [8]: 7.2 pg/mL | Fas Ligand conc/live cell, Mean [8]: 1.4 pg/10^5 | MFI, bead Fas Ligand, Mean [8]: 8.0 | Fas Ligand Concentration [8]: 6.5 pg/mL and 7.8 pg/mL | Fas Ligand conc/live cell [8]: 1.5 pg/10^5 and 1.3 pg/10^5 | MFI, bead Fas Ligand [8]: 7.0 and 9.0 | Fas Ligand Concentration, Mean [9]: 7.5 pg/mL | Fas Ligand conc/live cell, Mean [9]: 1.4 pg/10^5 | MFI, bead Fas Ligand, Mean [9]: 8.5 | Fas Ligand Concentration [9]: 6.5 pg/mL and 8.5 pg/mL | Fas Ligand conc/live cell [9]: 1.2 pg/10^5 and 1.5 pg/10^5 | MFI, bead Fas Ligand [9]: 7.0 and 10.0 | Fas Ligand Concentration, Mean [10]: 13.2 pg/mL | Fas Ligand conc/live cell, Mean [10]: 2.1 pg/10^5 | MFI, bead Fas Ligand, Mean [10]: 17.3 | Fas Ligand Concentration [10]: 14.0 pg/mL and 12.4 pg/mL | Fas Ligand conc/live cell [10]: 2.2 pg/10^5 and 2.0 pg/10^5 | MFI, bead Fas Ligand [10]: 18.5 and 16.0 | Fas Ligand Concentration, Mean [11]: 6.9 pg/mL | Fas Ligand conc/live cell, Mean [11]: 1.0 pg/10^5 | MFI, bead Fas Ligand, Mean [11]: 7.5 | Fas Ligand Concentration [11]: 7.8 pg/mL and 5.9 pg/mL | Fas Ligand conc/live cell [11]: 1.2 pg/10^5 and 0.8 pg/10^5 | MFI, bead Fas Ligand [11]: 9.0 and 6.0

CC(C)C[C@H](NC(=O)CNC(=O)[C@H](CC(C)C)NC(=O)[C@H](CCC(N)=O)NC(=O)CNC(=O)[C@@H]1C[C@@H](O)CN1)C(=O)N[C@@H](C)C(=O)NCC(=O)N1CCC[C@H]1C(=O)N[C@@H](CCCCN)C(=O)O [YDE-011] (H-[Hyp]GQLGLAGPK-OH)
Fas Ligand Concentration, Mean [1]: 16.8 pg/mL | Fas Ligand conc/live cell, Mean [1]: 3.2 pg/10^5 | MFI, bead Fas Ligand, Mean [1]: 22.7 | Fas Ligand Concentration [1]: 15.7 pg/mL and 18.4 pg/mL and 16.4 pg/mL | Fas Ligand conc/live cell [1]: 3.5 pg/10^5 and 3.2 pg/10^5 and 2.8 pg/10^5 | MFI, bead Fas Ligand [1]: 21.0 and 25.0 and 22.0 | Fas Ligand Concentration, Mean [2]: 15.5 pg/mL | Fas Ligand conc/live cell, Mean [2]: 2.7 pg/10^5 | MFI, bead Fas Ligand, Mean [2]: 20.7 | Fas Ligand Concentration [2]: 17.1 pg/mL and 13.7 pg/mL and 15.7 pg/mL | Fas Ligand conc/live cell [2]: 2.7 pg/10^5 and 2.2 pg/10^5 and 3.1 pg/10^5 | MFI, bead Fas Ligand [2]: 23.0 and 18.0 and 21.0 | Fas Ligand Concentration, Mean [3]: 17.3 pg/mL | Fas Ligand conc/live cell, Mean [3]: 3.0 pg/10^5 | MFI, bead Fas Ligand, Mean [3]: 23.3 | Fas Ligand Concentration [3]: 19.1 pg/mL and 17.7 pg/mL and 15.0 pg/mL | Fas Ligand conc/live cell [3]: 2.9 pg/10^5 and 3.5 pg/10^5 and 2.6 pg/10^5 | MFI, bead Fas Ligand [3]: 26.0 and 24.0 and 20.0 | Fas Ligand Concentration, Mean [4]: 15.9 pg/mL | Fas Ligand conc/live cell, Mean [4]: 3.2 pg/10^5 | MFI, bead Fas Ligand, Mean [4]: 21.3 | Fas Ligand Concentration [4]: 17.4 pg/mL and 15.4 pg/mL and 15.0 pg/mL | Fas Ligand conc/live cell [4]: 3.2 pg/10^5 (2×) and 3.1 pg/10^5 | MFI, bead Fas Ligand [4]: 23.5 and 20.5 and 20.0 | Fas Ligand Concentration, Mean [5]: 17.3 pg/mL | Fas Ligand conc/live cell, Mean [5]: 3.3 pg/10^5 | MFI, bead Fas Ligand, Mean [5]: 23.3 | Fas Ligand Concentration [5]: 19.7 pg/mL and 17.7 pg/mL and 14.4 pg/mL | Fas Ligand conc/live cell [5]: 3.7 pg/10^5 and 3.1 pg/10^5 (2×) | MFI, bead Fas Ligand [5]: 27.0 and 24.0 and 19.0 | Fas Ligand Concentration, Mean [6]: 13.3 pg/mL | Fas Ligand conc/live cell, Mean [6]: 2.2 pg/10^5 | MFI, bead Fas Ligand, Mean [6]: 17.3 | Fas Ligand Concentration [6]: 11.7 pg/mL and 13.1 pg/mL and 15.0 pg/mL | Fas Ligand conc/live cell [6]: 1.9 pg/10^5 and 2.1 pg/10^5 and 2.5 pg/10^5 | MFI, bead Fas Ligand [6]: 15.0 and 17.0 and 20.0
